Results reported in patent US12509454B2, “Thiadiazolyl derivatives” (IDEAYA Biosciences, Inc., priority 2019, dated 2025).

These compounds were tested against Pol theta (1-899) (Homo sapiens (Human), UniProt O75417) (assay: Pol theta ATPase activity, NADH oxidation-coupled enzymatic assay). Conditions: Pol theta (1-899) 10 nM, ATP, dT50 ssDNA, absorbance 340 nm, 10-point dilution series; read-out: ATPase NADH coupling:Standard Screening:hPolQ IC50.
Chain of Pol theta (1-899) (O75417 1-899): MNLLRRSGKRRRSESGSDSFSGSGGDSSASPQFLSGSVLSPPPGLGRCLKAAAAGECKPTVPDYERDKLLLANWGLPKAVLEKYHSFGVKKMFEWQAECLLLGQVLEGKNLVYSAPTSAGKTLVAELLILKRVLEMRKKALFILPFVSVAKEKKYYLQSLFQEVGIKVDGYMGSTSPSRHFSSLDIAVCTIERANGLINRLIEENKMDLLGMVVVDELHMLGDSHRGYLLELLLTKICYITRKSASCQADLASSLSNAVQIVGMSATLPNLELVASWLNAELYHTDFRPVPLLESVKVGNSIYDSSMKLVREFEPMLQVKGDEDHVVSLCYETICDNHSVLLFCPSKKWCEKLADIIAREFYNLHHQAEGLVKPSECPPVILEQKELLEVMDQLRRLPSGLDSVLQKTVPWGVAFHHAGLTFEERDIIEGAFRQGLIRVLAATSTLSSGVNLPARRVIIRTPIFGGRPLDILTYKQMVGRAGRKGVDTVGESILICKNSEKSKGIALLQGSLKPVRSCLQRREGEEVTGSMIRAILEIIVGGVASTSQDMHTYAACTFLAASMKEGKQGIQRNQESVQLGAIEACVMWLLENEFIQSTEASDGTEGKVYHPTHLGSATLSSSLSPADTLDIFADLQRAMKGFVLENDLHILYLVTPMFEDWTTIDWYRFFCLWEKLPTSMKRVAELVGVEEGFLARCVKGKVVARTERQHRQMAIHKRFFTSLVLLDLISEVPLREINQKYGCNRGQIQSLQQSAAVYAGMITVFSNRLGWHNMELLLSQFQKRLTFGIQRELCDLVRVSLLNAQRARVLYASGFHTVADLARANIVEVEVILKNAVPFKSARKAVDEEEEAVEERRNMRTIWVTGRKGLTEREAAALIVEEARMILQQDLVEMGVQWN
Assay type: biochemical
Procedure, shortened: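 Pol theta (1-899), 10 nM, preincubated 15 min at RT with 10-point compound series in Tris pH 7.80/KCl/MgCl2 buffer, then given 100 μM ATP plus 300 nM dT50 ssDNA with PK/LDH-coupled NADH oxidation. A340 followed for 30 min; rate slopes fitted with a four-parameter model for IC50.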
`COc1ccccc1-c1cc(C)ncc1C(=O)Nc1nnc(O[C@H](C)c2ccc(Cl)cc2)s1` [Example 201, N-[5-[(1R)-1-(4-chlorophenyl)ethoxy]-1,3,4-thiadiazol-2-yl]-4-(2-methoxyphenyl)-6-methylpyridine-3-carboxamide] showed an IC50 of 500 to 1000 nM. In the case of `COc1ccccc1-c1cc(C)ncc1C(=O)Nc1nnc(O[C@@H](C)c2ccc(Cl)cc2)s1` [Example 202, N-[5-[(1S)-1-(4-chlorophenyl)ethoxy]-1,3,4-thiadiazol-2-yl]-4-(2-methoxyphenyl)-6-methylpyridine-3-carboxamide], the IC50 is reported as at most 200 nM. `Cc1cc(-c2ccccc2CO)c(C(=O)Nc2nnc(OCc3ccc(Cl)cn3)s2)cn1` [Example 203, N-[5-[(5-chloropyridin-2-yl)methoxy]-1,3,4-thiadiazol-2-yl]-4-[2-(hydroxymethyl)phenyl]-6-methylpyridine-3-carboxamide] gave an IC50 of at most 200 nM. `COc1ccccc1-c1cc(CN)ncc1C(=O)Nc1nnc(OCc2ccc(Cl)cn2)s1` [Example 204, 6-(aminomethyl)-N-[5-[(5-chloropyridin-2-yl)methoxy]-1,3,4-thiadiazol-2-yl]-4-(2-methoxyphenyl)pyridine-3-carboxamide] was tested, and the IC50 was 1000 to 10000 nM. `COc1ccccc1-c1cc(C)ncc1C(=O)Nc1nnc(OCc2ccc(C)cn2)s1` [Example 205, 4-(2-methoxyphenyl)-6-methyl-N-(5-((5-methylpyridin-2-yl)methoxy)-1,3,4-thiadiazol-2-yl)nicotinamide] gave an IC50 of at most 200 nM. `COc1cccc(F)c1-c1cc(CO)ncc1C(=O)Nc1nnc(OCc2ccc(Cl)cn2)s1` [Example 206, N-[5-[(5-chloropyridin-2-yl)methoxy]-1,3,4-thiadiazol-2-yl]-4-(2-fluoro-6-methoxyphenyl)-6-(hydroxymethyl)pyridine-3-carboxamide] gave an IC50 of at most 200 nM. `COc1ccccc1-c1cc(C(C)(C)O)ncc1C(=O)Nc1nnc(OCc2ccc(Cl)cn2)s1` [Example 207, N-(5-((5-chloropyridin-2-yl)methoxy)-1,3,4-thiadiazol-2-yl)-6-(2-hydroxypropan-2-yl)-4-(2-methoxyphenyl)nicotinamide] showed an IC50 of 1000 to 10000 nM. In the case of `Cc1cc(-c2cccc3c2OC(F)(F)O3)c(C(=O)Nc2nnc(OCc3ccc(Cl)cn3)s2)cn1` [Example 208, N-(5-((5-chloropyridin-2-yl)methoxy)-1,3,4-thiadiazol-2-yl)-4-(2,2-difluorobenzo[d][1,3]dioxol-4-yl)-6-methylnicotinamide], the IC50 is reported as at most 200 nM. In the case of `COc1ccccc1-c1cncnc1C(=O)Nc1nnc(OCc2ccc(Cl)cn2)s1` [Example 209, N-(5-((5-chloropyridin-2-yl)methoxy)-1,3,4-thiadiazol-2-yl)-5-(2-methoxyphenyl)pyrimidine-4-carboxamide], the IC50 is reported as at most 200 nM. Compound `COc1ccccc1-c1cc(C)ncc1C(=O)Nc1nnc(OCc2ncccc2F)s1` [Example 210, N-[5-[(3-fluoropyridin-2-yl)methoxy]-1,3,4-thiadiazol-2-yl]-4-(2-methoxyphenyl)-6-methylpyridine-3-carboxamide] has an IC50 of at most 200 nM. In the case of `COc1ccccc1-c1cc(C)ncc1C(=O)Nc1nnc(OCc2cccc(F)n2)s1` [Example 211, N-[5-[(6-fluoropyridin-2-yl)methoxy]-1,3,4-thiadiazol-2-yl]-4-(2-methoxyphenyl)-6-methylpyridine-3-carboxamide], the IC50 is reported as at most 200 nM. In the case of `COc1ccccc1-c1cc(C)ncc1C(=O)Nc1nnc(OCc2cnc(Cl)cn2)s1` [Example 212, N-[5-[(5-chloropyrazin-2-yl)methoxy]-1,3,4-thiadiazol-2-yl]-4-(2-methoxyphenyl)-6-methylpyridine-3-carboxamide], the IC50 is reported as at most 200 nM. With `COc1ccccc1-c1cc(C)ncc1C(=O)Nc1nnc(OCc2ccc(Cl)c3[nH]ncc23)s1` [Example 213, N-[5-[(7-chloro-1H-indazol-4-yl)methoxy]-1,3,4-thiadiazol-2-yl]-4-(2-methoxyphenyl)-6-methylpyridine-3-carboxamide] the IC50 was at most 200 nM. In the case of `COc1ccccc1-c1cc(C)ncc1C(=O)Nc1nnc(OCc2ccc(C3CC3)cn2)s1` [Example 214, N-(5-((5-cyclopropylpyridin-2-yl)methoxy)-1,3,4-thiadiazol-2-yl)-4-(2-methoxyphenyl)-6-methylnicotinamide], the IC50 is reported as at most 200 nM. Compound `COc1ccccc1-c1c(C(=O)Nc2nnc(OCc3ccc(Cl)cn3)s2)cnc(C)c1F` [Example 215, N-(5-((5-chloropyridin-2-yl)methoxy)-1,3,4-thiadiazol-2-yl)-5-fluoro-4-(2-methoxyphenyl)-6-methylnicotinamide] has an IC50 of at most 200 nM. Compound `COc1ccccc1-c1cc(C2CC2)ncc1C(=O)Nc1nnc(OCc2ccc(Cl)cn2)s1` [Example 216, N-[5-[(5-chloropyridin-2-yl)methoxy]-1,3,4-thiadiazol-2-yl]-6-cyclopropyl-4-(2-methoxyphenyl)pyridine-3-carboxamide] has an IC50 of at most 200 nM. With `COc1cccc(F)c1-c1cc(C)ncc1C(=O)Nc1nnc(OCc2ccc(C3(C#N)CC3)cn2)s1` [Example 217, N-(5-((5-(1-cyanocyclopropyl)pyridin-2-yl)methoxy)-1,3,4-thiadiazol-2-yl)-4-(2-fluoro-6-methoxyphenyl)-6-methylnicotinamide] the IC50 was at most 200 nM. Work on `Cc1cc(-c2ccccc2OC(F)F)c(C(=O)Nc2nnc(OCc3ccc(C4(C#N)CC4)cn3)s2)cn1` [Example 218, N-(5-[[5-(1-cyanocyclopropyl)pyridin-2-yl]methoxy]-1,3,4-thiadiazol-2-yl)-4-[2-(difluoromethoxy)phenyl]-6-methylpyridine-3-carboxamide] yielded an IC50 of at most 200 nM. In the case of `COc1ccccc1-c1cc(C)ncc1C(=O)Nc1nnc(OCc2ccc(C#N)cn2)s1` [Example 219, N-(5-((5-cyanopyridin-2-yl)methoxy)-1,3,4-thiadiazol-2-yl)-4-(2-methoxyphenyl)-6-methylnicotinamide], the IC50 is reported as at most 200 nM. `COc1ccccc1-c1cc(C)ncc1C(=O)Nc1nnc(OCc2ccc(C3(C#N)CC3)cn2)s1` [Example 220, N-(5-[[5-(1-cyanocyclopropyl)pyridin-2-yl]methoxy]-1,3,4-thiadiazol-2-yl)-4-(2-methoxyphenyl)-6-methylpyridine-3-carboxamide] gave an IC50 of at most 200 nM. Work on `COc1ccccc1-c1cc(C)ncc1C(=O)Nc1nnc(OCc2ccc(F)cn2)s1` [Example 221, N-[5-[(5-fluoropyridin-2-yl)methoxy]-1,3,4-thiadiazol-2-yl]-4-(2-methoxyphenyl)-6-methylpyridine-3-carboxamide] yielded an IC50 of at most 200 nM. Work on `COc1cc(-c2ccccc2OC)c(C(=O)Nc2nnc(OCc3ccc(Cl)cn3)s2)cn1` [Example 222, N-(5-((5-chloropyridin-2-yl)methoxy)-1,3,4-thiadiazol-2-yl)-6-methoxy-4-(2-methoxyphenyl)nicotinamide] yielded an IC50 of at most 200 nM. `COc1ccccc1-c1cc2cnnn2cc1C(=O)Nc1nnc(OCc2ccc(Cl)cn2)s1` [Example 223, N-[5-[(5-chloropyridin-2-yl)methoxy]-1,3,4-thiadiazol-2-yl]-5-(2-methoxyphenyl)-[1,2,3]triazolo[1,5-a]pyridine-6-carboxamide] was tested, and the IC50 was at most 200 nM. For `COc1ccccc1-c1cc2cncn2cc1C(=O)Nc1nnc(OCc2ccc(Cl)cn2)s1` [Example 224, N-[5-[(5-chloropyridin-2-yl)methoxy]-1,3,4-thiadiazol-2-yl]-7-(2-methoxyphenyl)imidazo[1,5-a]pyridine-6-carboxamide], the IC50 was at most 200 nM.
